This passage reports cytotoxicity results from ChEMBL document CHEMBL3507680, “University of Dundee, Gates Library screen for HepG2 cell viability”.

The nature of the data set: Human HepG2 cell viability assay in 384 well format. The format is toxicity, cell-based. On the set-up: dose 125 nL, time 70.5 hour; cytotoxicity at 70.5 h: concentration not given beside the values. To be noted: HepG2 cells, read-out: Inhibition.
Take `COCC(=O)N1CCn2c(Cn3cncn3)cnc2C1C` (stereo not drawn): the cytotoxicity at 70.5 h was -6.96%.
For `N#Cc1ccc(OC[C@]23COC[C@H]2CN(c2ncccn2)C3)nc1` the value was -7.98%.
Regarding `COCCNC(=O)C1CN(C(N)=O)Cc2ccnn2C1` (stereo not drawn), the cytotoxicity at 70.5 h is -8.89%.
For `c1ccc(COC[C@]23COC[C@H]2CN(c2ncccn2)C3)nc1` the value was -11.9%; for `CS(=O)(=O)N[C@@H]1COC[C@@H]2CN(Cc3ccco3)C[C@@H]21`, -16.3%; for `CS(=O)(=O)N1CC[C@]2(C[C@@H](OCC3CCC3)CO2)C1`, -12.4%.
Regarding `Cn1cc(-c2ncnc3c2CCN(C(=O)N2CCOCC2)CC3)cn1`, the cytotoxicity at 70.5 h was -5.18%.
The figure for `O=C(c1ccc(Cl)cc1)N1CCCn2nnc(Cn3cccn3)c2C1` is 1.05%; for `Cc1nccc([C@H]2C[C@@H]3CCN(S(=O)(=O)N(C)C)C[C@H]3O2)n1` it is -10.6%; for `O=C(N1CCOCC1)N1CCc2ncnc(NC3CC3)c2CC1` it is 21%.
The figure for `O=C(NCc1ccccc1)N1CCC2(CC(=O)N(c3ccsc3)C2)C1` (stereo not drawn) is -2.89%; for `COCC1CC2(CCN(C(=O)c3cccn3C)CC2)CN1C(C)C` (stereo not drawn) it is -0.557%.
On to `Cc1cccc(COC[C@]23COC[C@H]2CN(C(=O)c2ccsc2)C3)n1`, for which the cytotoxicity at 70.5 h came out at 2.91%.
On to `CC(=O)N1CC(=O)N(c2cnn(C)c2)CC12CCN(Cc1ccoc1)C2` (stereo not drawn), for which the cytotoxicity at 70.5 h is 1.31%.
The figure for `Cc1ccc2nc(C3CCN(CCO)CC3)nn2c1` is 21.1%.
For `Cn1cc(C2CC(=O)NC23CCN(c2ncc(F)cn2)CC3)cn1` (stereo not drawn) the value was 25.2%; for `Cc1cccc(C(=O)N2C[C@@H]3OCCN(C(C)C)[C@@H]3C2)n1`, -0.427%.
For `CNC(=O)[C@H]1C[C@@H]2CN(C(=O)c3ccco3)C[C@@H]2N1S(C)(=O)=O` the value was -7.68%; for `Cc1ncnc2c1CCN(c1cc(C(F)(F)F)ncn1)CC2`, -17.8%.
Turning to `CS(=O)(=O)N1CC[C@H]2C[C@@H](C(=O)N3CCOCC3)O[C@@H]2C1`, the cytotoxicity at 70.5 h was determined as 2.65%.
The figure for `O=C(NCc1ccco1)[C@H]1C[C@H]2OCC[C@H]2N(S(=O)(=O)C2CC2)C1` is -12.2%; for `CCc1cnc(N2C[C@H]3C[C@H](C(=O)N(C)C)[C@@H](C2)O3)nc1` it is -7.47%; for `CCNC(=O)N1CCC2(C1)c1ccccc1S(=O)(=O)N2CCC(C)C` (stereo not drawn) it is -12.9%.
For `CN(C)C(=O)[C@H]1C[C@@H]2CCN(C3CCOCC3)C[C@H]2O1` the value was -8.09%; for `COCCN1C(=O)[C@]2(CC[C@@H]3CN(C(=O)NCC(C)C)C[C@@H]32)N=C1C`, -10%.
Take `CS(=O)(=O)NCc1n[nH]c2c1CCN(C(=O)c1ccsc1)C2`: the cytotoxicity at 70.5 h turned out to be 30.1%.
The figure for `CNC(=O)C1CN(C(C)C)CCN1c1ncccn1` (stereo not drawn) is 2.44%.
On to `CCCn1nccc1-c1cnc(CC2CCN(C(C)=O)C2)cn1` (stereo not drawn), for which the cytotoxicity at 70.5 h was -3.63%.
The figure for `Cc1csc(Nc2cc(C3CN(C(C)C)C3)nc(C)n2)n1` is -3.73%; for `CN(C)C(=O)C1CN(c2ncccn2)CCN1C` (stereo not drawn) it is -1.97%; for `COc1ccc(N2CCNC(C(N)=O)C2)cc1` (stereo not drawn) it is 18.6%.
Consider `O=C(CN1CCCCCC1)N1CCc2nnc(C3CCCNC3)n2CC1` (stereo not drawn), for which the cytotoxicity at 70.5 h is 16%.
As for `Cn1ccc(C(=O)N2CCC(c3cc(CCO)n(C)n3)C2)n1` (stereo not drawn), the cytotoxicity at 70.5 h is -5.56%.
The figure for `Cc1cc(C)nc(N(C)CCn2ccnc2C)n1` is -2.15%; for `CNc1ncccc1CN1CCN(C)CC(C(N)=O)C1` (stereo not drawn) it is 25.3%; for `Cc1cc(N2CCN(C(=O)[C@@H]3C[C@@H]4C=C[C@H]3C4)CC2)nc2ccccc12` it is -4.89%.
For `Cc1nccc(N2CCN(C3CCOCC3)CC(C(=O)N(C)C)C2)n1` (stereo not drawn) the value was -13.5%; for `Cc1cc(Cc2ccc(F)cc2)cc(C2CCCNC2)n1` (stereo not drawn), 16.9%.
The figure for `Cn1cc(CN2CCCCC2c2ccc(-c3cccc(Cl)c3)nc2)cn1` (stereo not drawn) is -4.26%; for `Cc1ncsc1C(=O)N1CCC(c2ccc3c(NC(C)C)n[nH]c3n2)C1` (stereo not drawn) it is -15.9%; for `Cc1cc(N2CCN(C3CCOCC3)CC(C(=O)N(C)C)C2)ncn1` (stereo not drawn) it is -6.48%.
On to `CNC(=O)C1CN(C(C)C)CCN1c1nc(C)cc(C)n1` (stereo not drawn), for which the cytotoxicity at 70.5 h was -10.7%.
`c1cnc2c(CN3CCCCC3c3ccncn3)cnn2c1` (stereo not drawn): the cytotoxicity at 70.5 h is -8.22%.
The figure for `Cc1ccc(CC2COCCN(S(C)(=O)=O)C2)nc1` (stereo not drawn) is 12.3%; for `CN1CCN(c2ncccn2)CC(C(=O)N(C)C)C1` (stereo not drawn) it is -5.5%; for `CN(C)C(=O)C1CN(c2ccncn2)CCN(C2CCOCC2)C1` (stereo not drawn) it is 12.4%.
On to `CNc1ncccc1CN1CCN(C(C)=O)CC(C(N)=O)C1` (stereo not drawn), for which the cytotoxicity at 70.5 h was -4.74%.
For `COCC(=O)N1CCC(C)(c2cc(O)[nH]n2)CC1` the value was 0.0821%.
For `CC(C)C[C@H](N)COc1cccc(F)c1Oc1ccc(Cl)cc1` the value was 26.2%; for `Cc1ccc(Oc2c(F)cccc2OC[C@@H](N)CC(C)C)cc1`, 23.8%.
For `CNC(=O)C1CN(c2ccc(F)cc2)CCN1` (stereo not drawn) the value was -1.89%.
On to `CC1c2ncc(CNC(=O)C3CC3)n2CCN1Cc1ccsc1` (stereo not drawn), for which the cytotoxicity at 70.5 h was -1.59%.
For `Cc1ccc(CN2C[C@@H]3COC[C@H](NS(C)(=O)=O)[C@@H]3C2)s1` the value was -10.6%.
The figure for `O=C(c1n[nH]c2c1CCN(Cc1nccs1)C2)N1CCCC1` is -7.39%; for `CC(=O)N1CC(=O)N(c2cnn(C)c2)CC12CCN(CC1CC1)C2` (stereo not drawn) it is 1.31%.
For `COCCN1C[C@H]2CC[C@@]3(N=C(C)N(CC4CC4)C3=O)[C@H]2C1` the value was -2.1%.
`CC(C)CNC(=O)[C@H]1CCS(=O)(=O)[C@@H]2CN(Cc3ccc(Cl)cc3)C[C@H]12`: the cytotoxicity at 70.5 h turned out to be 3.8%.
For `COCC1CC2(CCN(C(=O)c3cc(C)oc3C)CC2)CN1C(C)C` (stereo not drawn) the value was 0.799%; for `COCC1Cn2nnc(-c3cnn(C)c3)c2CN1Cc1ccco1` (stereo not drawn), 5.04%.
For `O=C(NC1CCC1)[C@@H]1CCO[C@@H]2CCN(CCc3ccccc3)C[C@H]21` the value was -3.26%.
In the case of `Cc1cccc(NC(=O)N2CCCn3cnc(CN4CCCC4)c3C2)c1`, the cytotoxicity at 70.5 h is -1.43%.
Turning to `c1cnc(NC[C@@H]2CCC[C@@H]3CN(Cc4cc[nH]n4)C[C@@H]32)nc1`, the cytotoxicity at 70.5 h was -5.11%.
For `Cc1cnc2n1CCN(C)C21CCN(C(=O)CC(C)C)CC1` the value was 3.32%; for `CCN1CCC2(CC1)CC(NC(=O)NC)c1cc(C)ccc12` (stereo not drawn), -6.74%.
The figure for `COCC(=O)N1CCC[C@]2(C(=O)N(C)C)CN(c3ccccn3)C[C@@H]2C1` is -5.67%; for `CCS(=O)(=O)N1CCC[C@]2(C(=O)N(C)C)CN(c3ccccn3)C[C@@H]2C1` it is -0.152%; for `CN(Cc1ccccc1)C1COC2(CCN(Cc3nccs3)CC2)C1` (stereo not drawn) it is 10%.
For `CO[C@H]1CCN(S(=O)(=O)c2cn(C)cn2)[C@H]1Cc1cnn(C)c1` the value was -14.3%.
Consider `O=C([C@H]1C[C@@H]2CCN(C3CCOCC3)C[C@@H]2O1)N1CCOCC1`, for which the cytotoxicity at 70.5 h was -5.58%.
Take `CN1CCN(C(=O)[C@H]2C[C@@H]3CCN(c4ncc(F)cn4)C[C@@H]3O2)CC1`: the cytotoxicity at 70.5 h is -13.1%.
For `COCCN1C[C@@H](C)[C@@]2(COCCN(C(=O)Cc3ccccc3)C2)C1` the value was -23%.
For `Cc1nc(N2CCCC2)nc2c1CN(C(C)C)CC2` the value was -12.7%.
For `COc1ccc(CN2CCc3ncnc(OC(C)C)c3CC2)cc1` the value was 43.9%.
For the compound `Cc1ccc(CN2CCc3ncnc(C4CC4)c3CC2)s1`, the cytotoxicity at 70.5 h came out at 33.9%.
The figure for `CN(C)CCOCc1nnc2n1CCN(Cc1cccs1)CC2` is 1.78%; for `COc1cc(N2C[C@@H]3COC[C@]3(COc3ccccn3)C2)ncn1` it is -11.5%.
The figure for `Cc1cccc(CN2C[C@@H]3COC[C@H](NS(C)(=O)=O)[C@@H]3C2)n1` is -15.5%; for `O=C(NCC1CC1)C1CN(c2ncccn2)Cc2ccnn2C1` (stereo not drawn) it is -14.5%; for `O=S1(=O)CCN(Cc2cccnc2)[C@H]2CCN(c3ncccn3)CC[C@H]21` it is 19.6%.
Regarding `c1cncc(C2COC3(CCN(CC4CC4)CC3)C2)c1` (stereo not drawn), the cytotoxicity at 70.5 h was -0.218%.
The figure for `CN(C)CC(=O)N1CCOC2(CCCN(c3ncccc3F)C2)C1` (stereo not drawn) is 4.23%; for `CN1CC(=O)N(c2cccnc2)CC12CCN(C(=O)c1cccnc1)C2` (stereo not drawn) it is 2.34%.
As to `CCN1CCn2c(C)cnc2C12CCN(C(=O)CC(C)C)CC2`, the cytotoxicity at 70.5 h was -2.3%.
The figure for `Cn1cc(N2C(=O)CC[C@@H]3[C@H]2CCN3Cc2ccncc2)cn1` is 6.03%; for `Cc1cnc(N2CCCC3(CCN(Cc4csc(C)n4)C3=O)C2)nc1` (stereo not drawn) it is 3.6%; for `O=C(c1ccsc1)N1CCOC2(CCN(Cc3cccnc3)CC2)C1` it is -1.16%.
The figure for `CN(Cc1cn2c(n1)CN(C1CCOC1)CC2)Cc1ccco1` (stereo not drawn) is -8.22%.
The figure for `O=C(NCC1CC1)[C@H]1C[C@@H]2[C@@H](C1)OCCN2Cc1cccnc1` is 25%.
Turning to `CNC(=O)CN1CCOCC2(CCCN(Cc3cccnc3)C2)C1` (stereo not drawn), the cytotoxicity at 70.5 h worked out at 4.24%.
For `CN1CCN(C[C@@H]2OC[C@H]3CN(Cc4ccsc4)CC[C@H]32)CC1`, the cytotoxicity at 70.5 h was -4.59%.
The figure for `CC1c2ncc(CN3CCN(C)CC3)n2CCN1CC1CC1` (stereo not drawn) is -11.9%; for `CC1c2ncc(CN3CCN(C)CC3)n2CCN1Cc1cccnc1` (stereo not drawn) it is -15.8%; for `Cc1c[nH]c(C2CCCN(Cc3ccccc3C(=O)O)C2)n1` (stereo not drawn) it is 18.7%.
